Literature values as cited in US11446359B2, “Systems and methods for cardiac plexus neuromodulation” (Tulavi Therapeutics, Inc., priority 2015, dated 2022).

Tests used:
[1] = system: sympathetic ganglia
[2] = 2.5 ml 0.25% with epinephrine
[3] = system: lumbar chain; settings: remaining 4 required a second block
[4] = system: asthma
[5] = system: thoracic sympathetic ganglia and rami
[6] = system: asthma; remark: listed apart in the source
[7] = system: axons and Schwann cells; settings: in vivo
[8] = in vivo

## C[C@H](CCCC(C)(C)O)[C@H]1CC[C@H]2[C@@H]3CC=C4C[C@@H](O)CC[C@]4(C)[C@H]3CC[C@]12C [25-OH-cholesterol]
[1]
  relative potency among cholesterol oxides: most potent

## CCCCN1CCCCC1C(=O)Nc1c(C)cccc1C (centres unmarked) [Marcaine]
[2]
  duration of relief: 1 to 10 days
  duration of relief, median: 4 days

## CCO [absolute alcohol, ethanol]
[3]
  patients that required one injection only: 19/23
[4]; case studies, n=3, 1 cc absolute alcohol
  patients free of asthma: 100%
[4]; further cases
  cases that obtained complete relief: 80%
[5]; 23 cases
  patients with complete relief: 75%
[5]; severe intractable asthma cases (Levin 1935)
  cases with cure or dramatic improvement in asthma: 75%
[6]; case studies, n=5, 2.5 cc absolute alcohol per injection
  patients with complete disappearance of asthma: 100%
[6]; further work, 13/18 cases
  cases with complete relief: 72%

## Oc1ccccc1 [phenol]
[7]
  time at which regeneration in the periphery may begin: 2 weeks
[8]
  bilateral sensory blockade: 1.3%
  intrathecal injection observed: 0.52%
  transient hypertension: 4.6%
